Legend:
human cell line G292 = experiment: Fixing of calcium by the osteoblast cell line G292; assay type: cell-based; parameters: Fixed calcium, Average: unit not given here; conditions: for Fixing the calcium (fixed calcium): G292, Example I, controls = 1,000
Protocol: (§1) More precisely, the process according to the invention consists of preparing a suspension of a human or animal osseous cell line, by adjusting the cellular density determined by turbidimetry or by calculating from a reference value, leaving to incubate for one to three days at 37° C. in the presence of carbon dioxide and of a complete culture medium (CCM), adding to some wells an agent inhibiting the fixing of calcium or a calciotropic hormone, and some extract to be titrated, eliminating the supernatants from the culture, rinsing out the wells with a rinsing medium without calcium or magnesium (P.B.S. for example) in such a way as to eliminate the non-fixed calcium from the culture medium, eliminating the supernatant fractions, and adjusting the volume of the dispersion with a fixed volume of mineral acid such as hydrochloric acid, sulphuric acid, phosphoric acid or perchloric acid or with any other product capable of destroying the extracellular matrix built up by the cells being cultured. […] NT-690.005.
(§2) The material to be tested is dosed on a cell culture. An analysis is carried out of the calcium fixed by the osseous cells. To do this, the calcium fixed by an osteoblastic cell line is dosed. In a non-limiting way, UMR 106 and G292, in the presence or not of deleterious agents such as the Inh-Ca and the IL-1 may be cited. The preparation to be analysed will also itself be tested, on the same cell line in the presence or not of agents such as Inh-Ca and IL-1.
In these same conditions, calcium fixed by the same cell line in the presence of estradiol is dosed and a calibration scale is produced, expressed in weight of estradiol This calibration scale ranges from 10^−3 to 10^−10 mol of estradiol or more frequently between 10^−7 and 10^−9 mol of estradiol. In this way, it is possible to establish a correlation between the activity of the extract of Padina and an active quantity of estradiol. We should stress that this comparison is made between the activity of estradiol directly on the cell culture with the active extract of Padina in the presence of deleterious agents such as an Inh-Ca or IL-1. So it is not a true weight comparison and it is proposed that the result should be expressed in Units of Activity (UA). A unit of activity is defined as the quantity of extract capable of increasing by 50% the quantity of calcium fixed by 400,000 cells cultivated for 48 hours in the presence of 1 ng of interleukin 1 per 1 ml well. The IL-1 can be replaced by another agent inhibiting the fixing of calcium at an equi-active dose.
The extracts of Padina have been described, in particular in the European patent application EP 0.655.250. The algae is then depleted after drying, by a hydrocarbonated solvent such as cyclohexane or acetone, the vegetable matter is separated, and the extracted product is filtered then evaporated until dry. A quantity of dry extract weighed precisely is then dissolved in ethanol. Determining its activity is the object of the present invention. In concrete terms, the process according to the invention consists of preparing a suspension of culture of the human cell line G292 (ECAC no. 901-110522), adjusting the cell density to 400,000 cells per ml of complete culture medium (CCM), supplemented by 10% of fetal calf serum. The cell suspension is distributed at the rate of 1 ml per well on plates of 24 wells. It is left to incubate overnight in an atmosphere of CO2 at 37°. The supernatants are separated then dilution is carried out by a new addition of CCM. An aliquot fraction of IL-1 is prepared and 5 μl of interleukin IL1 solution is added, namely 1 ng per well in the wells for the cells which receive only one inhibiting treatment per IL-1.
(§3) For each trial of solution to be titrated, 5 μl of solution of Padina extract is added. It is then left to incubate for the length of time necessary to carry out the trial, normally between 24 and 72 hours, and preferably 48 hours. […]

Osteoblasts = experiment: Fixing of calcium by osteoblasts (Example I); assay type: cell-based
Protocol: as §1
The extracts or powders of the algae Padina pavonica have the effect of stimulating biological activity (synthesis of proteins and glycoaminoglycanes) but also act to restore physiological functions such as the fixing of calcium by osteogenic cells. For this, the fixed calcium is dosed with a fixed cell line, such as for example the cell line UMR 106 or the line G 292, in the presence or not of deleterious agents such as inhibitors of the calcic canals and pro-inflammatory agents such as IL 1. Normal osteoblasts give good results, but their availability presents a problem. The preparation to be analysed is tested in parallel on the same cell line, in the presence or not of these same deleterious agents. The quantity of fixed calcium in relation to that obtained with the calciotropic agent and with those obtained in the presence of agents inhibiting the fixing of calcium are compared.
as §2, §3

[1] = agent in the presence of IL-1, controls = 1,000
[2] = calcic inhibitor alone, 10 μg, control 1.194

C[C@]12CC[C@@H]3c4ccc(O)cc4CC[C@H]3[C@@H]1CC[C@@H]2O [Est, Estradiol]
Fixed calcium, Average (human cell line G292; Estradiol 10^−7 alone, control 1.194): 1.151 | Fixed calcium, Average (human cell line G292; Estradiol 10^−8 alone, control 1.194): 1.115 | Fixed calcium, Average (human cell line G292; Estradiol 10^−9 alone, control 1.194): 0.706 | Fixed calcium, Average (human cell line G292; Estradiol + Cinchonine, control 1.194, Cinchonine 0.059): 0.357 | Fixed calcium, Average (human cell line G292; Estradiol + IL-1, control 1.194, IL-1 0.315): 0.357 | Fixed calcium, Average (human cell line G292; Estradiol + Verapamil, control 1.194, Verap 0.383): 0.373 | Fixing the calcium (fixed calcium) (human cell line G292; agent alone): 2,648 | Fixing the calcium (fixed calcium) (human cell line G292; agent in the presence of IL-1): 0,070 | Fixing the calcium (fixed calcium) (Osteoblasts; agent alone, controls = 1,000): 1,843 | Fixing the calcium (fixed calcium) (Osteoblasts; [1]): 0,200

C=C[C@H]1C[N@@]2CC[C@H]1C[C@@H]2[C@@H](O)c1ccnc2ccccc12 [Cinchonine]
Fixed calcium, Average (human cell line G292; [2]): 0.059

C=C1CC[C@H](O)C/C1=C/C=C1\CCC[C@]2(C)[C@@H]([C@H](C)CCCC(C)C)CC[C@@H]12 [D3, Vitamin D3]
Fixing the calcium (fixed calcium) (human cell line G292; agent alone): 1,540 | Fixing the calcium (fixed calcium) (human cell line G292; agent in the presence of IL-1): 0,070 | Fixing the calcium (fixed calcium) (Osteoblasts; agent alone, controls = 1,000): 1,215 | Fixing the calcium (fixed calcium) (Osteoblasts; [1]): 0,125

COc1ccc(CCN(C)CCCC(C#N)(c2ccc(OC)c(OC)c2)C(C)C)cc1OC (stereo not shown) [Verap, Verapamil]
Fixed calcium, Average (human cell line G292; [2]): 0.383

From patent US7122337B2, “Method for determining calciotropic activity of a preparation of Padina pavonic algae” (Texinfine SA, priority 2001, dated 2006)
